# Test results reported in publication PMC9025901, “New Genetic Bomb Trigger: Design, Synthesis, Molecular Dynamics Simulation, and Biological Evaluation of Novel BIBR1532-Related Analogs Targeting Telomerase against Non-Small Cell Lung Cancer” (Pharmaceuticals, 2022).
# Assays:
# A549/ATCC = experiment: NCI-60 in vitro anticancer screening (SRB); details: Lung cancer (NSCLC), 10 µM, 48 h
# Protocol: (§1) The cancer screening panel’s human tumor 60 cell lines were cultured in the RPMI 1640 medium with (5%) fetal bovine serum and (2 mM) L-glutamine. For a screening experiment, cells were injected onto 96-well microtiter plates (100 µL), with plating densities varying from 5 to 40 × 10^3 cells per well, depending on different cell lines’ doubling times. Before introducing experimental drugs, the microtiter plates were incubated overnight at 37 °C, 95% air, 5% CO2, and 100% relative humidity after cell injection. TCA was employed to keep each cell line in place overnight, resembling a computation of the cell population for every cell line at the time of the addition of the drug. The experimental drugs were chilled after solubilization in DMSO at 400 times the final maximum test concentration. At the moment of the addition of the drug, the aliquot of the frozen concentrate was thawed and diluted to twice the required final maximum concentration with the complete medium containing (50 µg/mL) gentamicin. […] The bound dye was then solubilized with a (10 mM) trizma base, and absorbance was calculated at 515 nm on an automatic reader. […] The % growth of treated cells was established using seven absorbance measurements and compared to untreated control cells [57].
# RXF 393 = experiment: NCI-60 in vitro anticancer screening (SRB); details: RXF 393, Renal cancer; 10 µM, 48 h
# Protocol: (§2) The cancer screening panel’s human tumor 60 cell lines were cultured in the RPMI 1640 medium with (5%) fetal bovine serum and (2 mM) L-glutamine. For a screening experiment, cells were injected onto 96-well microtiter plates (100 µL), with plating densities varying from 5 to 40 × 10^3 cells per well, depending on different cell lines’ doubling times. Before introducing experimental drugs, the microtiter plates were incubated overnight at 37 °C, 95% air, 5% CO2, and 100% relative humidity after cell injection. TCA was employed to keep each cell line in place overnight, resembling a computation of the cell population for every cell line at the time of the addition of the drug. The experimental drugs were chilled after solubilization in DMSO at 400 times the final maximum test concentration. At the moment of the addition of the drug, the aliquot of the frozen concentrate was thawed and diluted to twice the required final maximum concentration with the complete medium containing (50 µg/mL) gentamicin. The required final concentration of the drug (10 µM) was reached by adding 100 µL aliquots of these definite dilutions of the drug to suitable microtiter wells previously holding a medium of 100 µL. […] The bound dye was then solubilized with a (10 mM) trizma base, and absorbance was calculated at 515 nm on an automatic reader. […]
# BT-549 = experiment: NCI-60 in vitro anticancer screening (SRB); details: BT-549, Breast cancer; 10 µM, 48 h
# Protocol: as §2
# SF-295 = experiment: NCI-60 in vitro anticancer screening (SRB); details: SF-295, CNS cancer; 10 µM, 48 h
# Protocol: as §1
# MDA-MB-435 = experiment: NCI-60 in vitro anticancer screening (SRB); details: MDA-MB-435, Melanoma; 10 µM, 48 h
# Protocol: as §2
# SK-OV-3 = experiment: NCI-60 in vitro anticancer screening (SRB); details: SK-OV-3, Ovarian cancer; 10 µM, 48 h
# Protocol: as §1
# HT29 = experiment: NCI-60 in vitro anticancer screening (SRB); details: HT29, Colon cancer; 10 µM, 48 h
# Protocol: as §1
# SK-MEL-28 = experiment: NCI-60 in vitro anticancer screening (SRB); details: SK-MEL-28, Melanoma; 10 µM, 48 h
# Protocol: as §2
# NCI/ADR-RES = experiment: NCI-60 in vitro anticancer screening (SRB); details: Ovarian cancer, 10 µM, 48 h
# Protocol: as §1
# HS 578T = experiment: NCI-60 in vitro anticancer screening (SRB); details: Breast cancer, 10 µM, 48 h
# Protocol: as §2
# SNB-19 = experiment: NCI-60 in vitro anticancer screening (SRB); details: SNB-19, CNS cancer; 10 µM, 48 h
# Protocol: as §1
# U251 = experiment: NCI-60 in vitro anticancer screening (SRB); details: U251, CNS cancer; 10 µM, 48 h
# Protocol: as §1
# EKVX = experiment: NCI-60 in vitro anticancer screening (SRB); details: Lung cancer (NSCLC), 10 µM, 48 h
# Protocol: as §1
# NCI-H522 = experiment: NCI-60 in vitro anticancer screening (SRB); details: NCI-H522, Lung cancer (NSCLC); 10 µM, 48 h
# Protocol: as §1
# MALME-3M = experiment: NCI-60 in vitro anticancer screening (SRB); details: Melanoma, 10 µM, 48 h
# Protocol: as §1
# SN12C = experiment: NCI-60 in vitro anticancer screening (SRB); details: Renal cancer, 10 µM, 48 h
# Protocol: as §1
# CAKI-1 = experiment: NCI-60 in vitro anticancer screening (SRB); details: CAKI-1, Renal cancer; 10 µM, 48 h
# Protocol: as §2
# K-562 = experiment: NCI-60 in vitro anticancer screening (SRB); details: K-562, Leukemia; 10 µM, 48 h
# Protocol: as §1
# COLO 205 = experiment: NCI-60 in vitro anticancer screening (SRB); details: COLO 205, Colon cancer; 10 µM, 48 h
# Protocol: as §1
# UACC-62 = experiment: NCI-60 in vitro anticancer screening (SRB); details: UACC-62, Melanoma; 10 µM, 48 h
# Protocol: as §1
# IGROV1 = experiment: NCI-60 in vitro anticancer screening (SRB); details: IGROV1, Ovarian cancer; 10 µM, 48 h
# Protocol: as §1
# TK-10 = experiment: NCI-60 in vitro anticancer screening (SRB); details: TK-10, Renal cancer; 10 µM, 48 h
# Protocol: as §1
# HCT-116 = experiment: NCI-60 in vitro anticancer screening (SRB); details: HCT-116, Colon cancer; 10 µM, 48 h
# Protocol: as §1
# NCI-H23 = experiment: NCI-60 in vitro anticancer screening (SRB); details: NCI-H23, Lung cancer (NSCLC); 10 µM, 48 h
# Protocol: as §1
# HOP-92 = experiment: NCI-60 in vitro anticancer screening (SRB); details: HOP-92, Lung cancer (NSCLC); 10 µM, 48 h
# Protocol: as §1
# SNB-75 = experiment: NCI-60 in vitro anticancer screening (SRB); details: SNB-75, CNS cancer; 10 µM, 48 h
# Protocol: as §1
# LOX IMVI = experiment: NCI-60 in vitro anticancer screening (SRB); details: Melanoma, 10 µM, 48 h
# Protocol: as §1
# NCI-H322M = experiment: NCI-60 in vitro anticancer screening (SRB); details: Lung cancer (NSCLC), 10 µM, 48 h
# Protocol: as §1
# T-47D = experiment: NCI-60 in vitro anticancer screening (SRB); details: Breast cancer, 10 µM, 48 h
# Protocol: as §2
# RPMI-8226 = experiment: NCI-60 in vitro anticancer screening (SRB); details: RPMI-8226, Leukemia; 10 µM, 48 h
# Protocol: as §1
# SK-MEL-5 = experiment: NCI-60 in vitro anticancer screening (SRB); details: SK-MEL-5, Melanoma; 10 µM, 48 h
# Protocol: as §2
# 786-0 = experiment: NCI-60 in vitro anticancer screening (SRB); details: 786-0, Renal cancer; 10 µM, 48 h
# Protocol: as §1
# MCF7 = experiment: NCI-60 in vitro anticancer screening (SRB); details: MCF7, Breast cancer; 10 µM, 48 h
# Protocol: as §2
# [1] = biological target: T1, telomerase inside living cancer cells A549 (Homo sapiens, UniProt O14746); experiment: Living-cell TRAP assay, A549; format: cell-based; details: percent of control cells, 10 µM, 48 h
# T1 construct: host or cells: A549
# T1 sequence (O14746 whole entry): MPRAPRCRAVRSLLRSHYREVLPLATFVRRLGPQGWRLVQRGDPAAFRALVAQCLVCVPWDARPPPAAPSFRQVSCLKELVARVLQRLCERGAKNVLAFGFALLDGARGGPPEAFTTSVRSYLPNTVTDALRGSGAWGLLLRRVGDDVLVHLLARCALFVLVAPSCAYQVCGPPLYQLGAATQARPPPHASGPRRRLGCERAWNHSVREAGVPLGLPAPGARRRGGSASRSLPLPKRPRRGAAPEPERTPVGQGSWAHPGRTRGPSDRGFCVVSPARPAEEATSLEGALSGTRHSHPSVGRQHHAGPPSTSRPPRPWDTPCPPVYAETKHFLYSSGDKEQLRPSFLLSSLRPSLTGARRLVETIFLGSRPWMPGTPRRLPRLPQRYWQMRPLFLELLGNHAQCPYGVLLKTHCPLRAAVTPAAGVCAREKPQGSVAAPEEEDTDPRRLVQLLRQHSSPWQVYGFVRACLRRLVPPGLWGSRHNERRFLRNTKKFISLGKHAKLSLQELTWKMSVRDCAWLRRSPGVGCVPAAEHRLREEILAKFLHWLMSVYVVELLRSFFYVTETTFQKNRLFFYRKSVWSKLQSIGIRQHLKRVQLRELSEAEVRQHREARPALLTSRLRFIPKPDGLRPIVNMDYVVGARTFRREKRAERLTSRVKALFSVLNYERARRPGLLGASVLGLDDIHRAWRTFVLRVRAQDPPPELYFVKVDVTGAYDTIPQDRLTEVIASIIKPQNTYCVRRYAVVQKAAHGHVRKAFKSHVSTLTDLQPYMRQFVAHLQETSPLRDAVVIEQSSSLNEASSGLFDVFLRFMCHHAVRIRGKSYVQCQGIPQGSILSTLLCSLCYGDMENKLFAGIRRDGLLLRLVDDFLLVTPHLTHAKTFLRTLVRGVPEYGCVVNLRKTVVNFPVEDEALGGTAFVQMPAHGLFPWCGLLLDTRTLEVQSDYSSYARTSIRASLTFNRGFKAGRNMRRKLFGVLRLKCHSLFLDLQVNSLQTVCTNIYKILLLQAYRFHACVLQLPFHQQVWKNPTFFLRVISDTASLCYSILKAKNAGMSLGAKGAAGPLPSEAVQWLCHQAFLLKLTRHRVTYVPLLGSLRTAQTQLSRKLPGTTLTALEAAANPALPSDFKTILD
# T1 sequence (O60832 whole entry partner): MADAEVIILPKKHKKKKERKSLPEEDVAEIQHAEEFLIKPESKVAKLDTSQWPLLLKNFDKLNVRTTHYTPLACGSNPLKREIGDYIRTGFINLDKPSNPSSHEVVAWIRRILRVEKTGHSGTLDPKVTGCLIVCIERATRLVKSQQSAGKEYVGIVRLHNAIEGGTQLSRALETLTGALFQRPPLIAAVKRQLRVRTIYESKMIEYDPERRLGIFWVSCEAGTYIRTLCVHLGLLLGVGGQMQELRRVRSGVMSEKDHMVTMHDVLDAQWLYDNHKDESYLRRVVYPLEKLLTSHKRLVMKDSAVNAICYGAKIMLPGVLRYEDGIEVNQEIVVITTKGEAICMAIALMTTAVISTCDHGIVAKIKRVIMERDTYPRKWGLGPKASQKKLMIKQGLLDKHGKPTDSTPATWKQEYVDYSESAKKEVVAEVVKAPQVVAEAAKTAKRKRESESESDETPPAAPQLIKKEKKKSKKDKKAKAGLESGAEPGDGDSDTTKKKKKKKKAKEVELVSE
# T1 sequence (Q9NX24 whole entry partner): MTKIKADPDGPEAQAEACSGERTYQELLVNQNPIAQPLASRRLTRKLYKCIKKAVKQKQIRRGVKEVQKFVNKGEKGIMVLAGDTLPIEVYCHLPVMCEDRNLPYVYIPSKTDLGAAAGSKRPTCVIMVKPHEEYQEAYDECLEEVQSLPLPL
# T1 sequence (Q9NPE3 whole entry partner): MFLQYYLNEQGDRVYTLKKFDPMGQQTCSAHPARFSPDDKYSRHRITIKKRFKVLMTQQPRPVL
# T1 sequence (Q9NY12 whole entry partner): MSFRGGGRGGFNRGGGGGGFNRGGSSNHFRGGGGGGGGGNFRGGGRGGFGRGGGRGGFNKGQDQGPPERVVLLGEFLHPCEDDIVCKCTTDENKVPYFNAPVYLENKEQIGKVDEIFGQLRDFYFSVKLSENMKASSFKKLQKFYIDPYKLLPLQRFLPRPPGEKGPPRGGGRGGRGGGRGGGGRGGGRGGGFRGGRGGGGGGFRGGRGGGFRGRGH
# T1 sequence (Q9BUR4 whole entry partner): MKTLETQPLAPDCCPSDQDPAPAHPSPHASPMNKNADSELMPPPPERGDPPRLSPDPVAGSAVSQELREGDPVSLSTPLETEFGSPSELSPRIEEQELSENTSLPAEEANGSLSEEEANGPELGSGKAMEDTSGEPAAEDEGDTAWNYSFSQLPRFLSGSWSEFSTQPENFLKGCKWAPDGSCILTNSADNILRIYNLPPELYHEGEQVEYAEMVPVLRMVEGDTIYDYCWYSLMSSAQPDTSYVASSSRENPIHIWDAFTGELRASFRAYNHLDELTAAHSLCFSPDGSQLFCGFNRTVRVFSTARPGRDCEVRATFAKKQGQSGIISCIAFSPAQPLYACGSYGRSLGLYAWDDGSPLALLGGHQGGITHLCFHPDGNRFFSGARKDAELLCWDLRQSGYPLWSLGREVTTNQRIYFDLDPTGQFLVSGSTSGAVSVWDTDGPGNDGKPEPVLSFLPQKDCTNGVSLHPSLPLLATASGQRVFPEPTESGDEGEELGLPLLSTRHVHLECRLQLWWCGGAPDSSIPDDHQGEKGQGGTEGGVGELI
# Protocol: The Telomeric Repeat Amplification Protocol (TRAP) [61] was used to evaluate the activity of telomerase, with some changes that we have previously described [62, 63]. A549 cells (human epithelial cell lung carcinoma, ATCC, Manassas, VA) were lysed in (10 mM) Tris-HCl, pH 7.5, (1 mM) EGTA, (1 mM) MgCl2, (5 mM) 2-mercaptoethanol, (0.1 mM) PMSF, (0.5%) CHAPS, and (10%) glycerol (Sigma-Aldrich, St. Louis, MO, USA) and centrifugation. The supernatants were kept at -80 °C. The BCA-1 Protein Assay Kit was used to assess the protein concentration in cell extracts (Sigma-Aldrich, St. Louis, MO, USA). […] To inactivate telomerase, the cells were elongated for 30 min at 37 °C and 10 min at 96 °C. Copy CX-primer was added to the elongation mixture along with 0.1 μL ([NT]) and 2.5 units Taq-polymerase, followed by the following PCR: 94 °C for 5 min; 30 cycles of 94 °C for 30 s, 50 °C for 30 s, and 72 °C for 40 s, and 72 °C for 5 min. TBE buffer and (12%) nondenaturing PAAG electrophoresis were used to visualize the PCR product. 10 μL of each sample was placed in each well of gel comb. The gels were stained with the SYBR Green I (Invitrogen, Grand Island, NY, USA), then photographed under the UV light in ChemiDocTM XRS imaging system and analyzed with GelAnalyzer 2010.
smiles,measurement,setting,value
"N#C/C(=C\c1ccc2ccccc2c1)C(=O)Nc1sc2c(c1C#N)CCCC2 [Compound 36b, (2E)-2-Cyano-N-(3-cyano-4,5,6,7-tetrahydro-1-benzothiophen-2-yl)-3-(naphthalen-2-yl)prop-2-enamide]",Growth Percent,A549/ATCC,100.18%
same,Growth Percent,RXF 393,111.16%
same,Growth Percent,BT-549,107.71%
same,Growth Percent,SF-295,95.53%
same,Growth Percent,MDA-MB-435,101.92%
same,Growth Percent,SK-OV-3,89.18%
same,Growth Percent,HT29,112.60%
same,Growth Percent,SK-MEL-28,102.31%
same,Growth Percent,NCI/ADR-RES,99.44%
same,Growth Percent,HS 578T,103.54%
same,Growth Percent,SNB-19,100.30%
same,Growth Percent,U251,98.73%
same,Growth Percent,EKVX,92.47%
same,Growth Percent,NCI-H522,94.31%
same,Growth Percent,MALME-3M,109.97%
same,Growth Percent,SN12C,100.72%
same,Growth Percent,CAKI-1,94.28%
same,Growth Percent,K-562,99.98%
same,Growth Percent,COLO 205,103.10%
same,Growth Percent,UACC-62,91.73%
same,Growth Percent,IGROV1,103.06%
same,Growth Percent,TK-10,113.35%
same,Growth Percent,HCT-116,100.18%
same,Growth Percent,NCI-H23,94.56%
same,Growth Percent,HOP-92,90.75%
same,Growth Percent,SNB-75,101.09%
same,Growth Percent,LOX IMVI,102.88%
same,Growth Percent,NCI-H322M,98.58%
same,Growth Percent,T-47D,97.26%
same,Growth Percent,RPMI-8226,99.85%
same,Growth Percent,SK-MEL-5,97.65%
same,Growth Percent,786-0,101.2%
same,Growth Percent,MCF7,92.41%
same,% Telomerase Activity in Cancer Cells,[1],18.1 ± 5.4%
